From US20240116946A1 (Gilead Sciences, Inc., priority 2022, published 2024)
Read-outs that look alike come from different tables or passages of the source.

Columns and labels:
[1] = molecular target: recombinant SARS-CoV-2 Main protease (Mpro) (Severe acute respiratory syndrome coronavirus 2 (2019-nCoV) (SARS-CoV-2), UniProt P0DTD1); test: Cov Mpro Biochemical IC50 Assay; conditions: read-out: MPro IC50
SARS-CoV-2-NLuc = test: microbe, parasite or virus in culture; type: cell-based, SARS Coronavirus 2
[2] = recombinant SARS-CoV-2 Mpro 7.5 nM, fluorogenic peptide substrate 40 μM
[3] = Severe acute respiratory syndrome coronavirus, 48 h, read-out: MPro EC50
[4] = Severe acute respiratory syndrome coronavirus, 48 h; read-out: MPro EC50
[5] = recombinant SARS-CoV-2 Mpro, fluorogenic peptide substrate

SMILES	IC50 [1, 2]	EC50 (SARS-CoV-2-NLuc; [3])	EC50 (SARS-CoV-2-NLuc; [4])	IC50 [1, 5]	EC50 (SARS-CoV-2-NLuc; read-out: MPro EC50)
COc1cc(-c2cc3c(s2)c(=O)n(-c2cncc4ccccc24)c(=O)n3[C@H]2C[C@@H](C#N)C2)c(Cl)cc1F [Example 694]	19.3 nM	61 nM			
COc1cc(-c2cc3[nH]c(=O)n(-c4cncc5cccnc45)c(=O)c3cc2OC)c(C#N)cc1F [Example 684]	13.5 nM	119 nM			
COc1cc(-c2cc3[nH]c(=O)n(-c4cncc5nn(C)cc45)c(=O)c3s2)c(Cl)cc1F [Example 731]	5.04 nM	65.6 nM			
N#CCCn1c(=O)n(-c2cncc(OC(F)F)c2)c(=O)c2sc(-c3ccccc3C#N)cc21 [Example 816]	58.1 nM		342 nM		
COc1cc2c(=O)n(-c3cncc4ccccc34)c(=O)[nH]c2cc1-c1c(Cl)cccc1OC [Example 77]			115 nM	131 nM	
COc1cc(-c2cc3c(s2)c(=O)n(-c2cncc4ccc(C)nc24)c(=O)n3CCC#N)c(Cl)cc1F [Example 906]	4.35 nM	2.41 nM			
Cc1ccccc1-c1cc2[nH]c(=O)n(-c3cncc4ccccc34)c(=O)c2cn1 [Example 165]		2470 nM		1470 nM	
COc1cc(-c2cc3[nH]c(=O)n(-c4cncc5ccccc45)c(=O)c3cc2OC)c(C#N)cc1F [Example 324, 5-fluoro-2-[3-(4-isoquinolyl)-6-methoxy-2,4-dioxo-1H-quinazolin-7-yl]-4-methoxy-benzonitrile]			18.1 nM	7.02 nM	
COc1ccc(Cl)c(-c2cc3[nH]c(=O)n(-c4cncc5cc(F)ccc45)c(=O)c3s2)c1 [Example 580, 6-(2-chloro-5-methoxyphenyl)-3-(7-fluoroisoquinolin-4-yl)thieno[3,2-d]pyrimidine-2,4(1H,3H)-dione]	7.53 nM	70.9 nM			
COc1cccc(C#N)c1-c1ccc2c(=O)n(-c3cncc4ccccc34)c(=O)[nH]c2c1 [Example 71]		141 nM		76.4 nM	
O=c1c2sc(-c3ccccc3Cl)cc2n(Cc2ccncc2)c(=O)n1-c1cncc2ccccc12 [Example 157]		204 nM		164 nM	
Cc1ccc(C#N)c(-c2cc3c(s2)c(=O)n(-c2cncc4cnn(C)c24)c(=O)n3CCC#N)c1 [Example 784]	10.8 nM	47.1 nM			
Cn1ncc2c(-c3cc4[nH]c(=O)n(-c5cncc6cnn(C)c56)c(=O)c4s3)c(Cl)ccc21 [Example 670]	146 nM	585 nM			
O=c1[nH]c2cc(-c3ccccc3F)sc2c(=O)n1-c1cncc2ccccc12 [Example 9]		295 nM		159 nM	
Cn1cc2ccc(-c3cc4[nH]c(=O)n(-c5cncc6ccccc56)c(=O)c4s3)cc2n1 [Example 10]		20000 nM		13700 nM	
CN1C(=O)CCc2cc(-c3cccc(Cl)c3-c3ccc4c(=O)n(-c5cncc6ccccc56)c(=O)[nH]c4c3)ccc21 [Example 307]		10.4 nM		16.9 nM	
Cc1cccc(-c2cc3[nH]c(=O)n(-c4cncc5ccccc45)c(=O)c3s2)c1Cl [Example 11]		638 nM		4820 nM	
COc1ccc(C#N)c(-c2cc3[nH]c(=O)n(-c4cncc5ccc(N6CC(F)(F)OC(F)(F)C6)cc45)c(=O)c3s2)c1 [Example 230]		128 nM		23.8 nM	
O=c1[nH]c2cc(-c3c(Cl)ccc4c3OCO4)ccc2c(=O)n1-c1cncc2ccccc12 [Example 172]		75.8 nM		159 nM	
COc1cc(-c2cc3c(s2)c(=O)n(-c2cncc4cnn(C)c24)c(=O)n3CCC#N)c(Cl)cc1F [Example 642, 3-[6-(2-chloro-4-fluoro-5-methoxy-phenyl)-3-(1-methylpyrazolo[4,3-c]pyridin-7-yl)-2,4-dioxo-thieno[3,2-d]pyrimidin-1-yl]propanenitrile]	8.54 nM		4.59 nM		
COC1CCN(c2ccc3cncc(-n4c(=O)[nH]c5cc(-c6ccccc6Cl)sc5c4=O)c3c2)CC1 [Example 401]	3.84 nM	10.6 nM			

SMILES	IC50 [1, 2]	EC50 (SARS-CoV-2-NLuc; [3])	EC50 (SARS-CoV-2-NLuc; [4])	IC50 [1, 5]	EC50 (SARS-CoV-2-NLuc; read-out: MPro EC50)
COc1cc(-c2cc3c(s2)c(=O)n(-c2cncc(Cl)c2Cl)c(=O)n3CCC#N)c(Cl)cc1F [Example 928]	12.2 nM	16.2 nM			
COc1cc(-c2cc3c(s2)c(=O)n(-c2cncc(Cl)c2C)c(=O)n3CCC#N)c(Cl)cc1F (single isomer, unassigned) [Example 1032, 3-[6-(2-chloro-4-fluoro-5-methoxy-phenyl)-3-(5-chloro-4-methyl-3-pyridyl)-2,4-dioxo-thieno[3,2-d]pyrimidin-1-yl]propanenitrile]	1.99 nM				2.02 nM
COc1ccc(Cl)c(-c2cc3c(s2)c(=O)n(-c2cncc4ccccc24)c(=O)n3CC#N)c1 (atropisomer, axis not shown) [Example 702]	< 2.98 nM	2.4 nM			
Cc1c(F)cncc1-n1c(=O)c2sc(-c3ccccc3C#N)cc2n(CCC#N)c1=O [Example 848]	34.5 nM		137 nM		
Cc1ccc2cncc(-n3c(=O)[nH]c4cc(-c5ccccc5Cl)sc4c3=O)c2c1 [Example 106, 6-(2-chlorophenyl)-3-(6-methylisoquinolin-4-yl)thieno[3,2-d]pyrimidine-2,4(1H,3H)-dione]			73 nM	23.7 nM	
COc1cc(-c2cc3[nH]c(=O)n(-c4cncc5ccccc45)c(=O)c3cc2F)c(C#N)cc1F (single isomer, unassigned) [Example 511, 5-fluoro-2-[6-fluoro-3-(4-isoquinolyl)-2,4-dioxo-1H-quinazolin-7-yl]-4-methoxy-benzonitrile]	913 nM				604 nM
Cc1cccc(C)c1-c1ccc2c(=O)n(-c3cncc4ccccc34)c(=O)[nH]c2c1 [Example 27]		751 nM		770 nM	
CC(C)(O)CNc1ccc2cncc(-n3c(=O)[nH]c4cc(-c5ccccc5Cl)sc4c3=O)c2c1 [Example 389]		131 nM		26.7 nM	
COc1cc(-c2cc3c(s2)c(=O)n(-c2cncc4ccccc24)c(=O)n3CCC#N)c(C#N)cc1F [Example 1001, 2-(1-(2-cyanoethyl)-3-(isoquinolin-4-yl)-2,4-dioxo-1,2,3,4-tetrahydrothieno[3,2-d]pyrimidin-6-yl)-5-fluoro-4-methoxybenzonitrile]	5.04 nM	3.11 nM			
Cc1cnc(F)c(-n2c(=O)c3sc(-c4ccccc4Cl)cc3n(CCC#N)c2=O)c1 [Example 771]	3.68 nM		6.03 nM		
COc1cc(-c2cc3c(s2)c(=O)n(-c2cncc4nc(C)n(C)c24)c(=O)n3CC2(C#N)CC2)c(Cl)cc1F [Example 707]	2.13 nM	8.9 nM			
N#CCCn1c(=O)n(-c2cncc3ccccc23)c(=O)c2sc(-c3ccccc3Cl)cc21 [Example 818, 3-(6-(2-chlorophenyl)-3-(isoquinolin-4-yl)-2,4-dioxo-3,4-dihydrothieno[3,2-d]pyrimidin-1(2H)-yl)propanenitrile]	7.61 nM	6.21 nM			
Cc1ncccc1-c1cccc(Cl)c1-c1ccc2c(=O)n(-c3cncc4ccccc34)c(=O)[nH]c2c1 [Example 320]		14.1 nM		16 nM	
COc1cc(-c2cc3c(s2)c(=O)n(-c2cncc4cnn(C)c24)c(=O)n3CC(F)F)c(Cl)cc1F [Example 1065, 6-(2-chloro-4-fluoro-5-methoxy-phenyl)-1-(2,2-difluoroethyl)-3-(1-methylpyrazolo[4,3-c]pyridin-7-yl)thieno[3,2-d]pyrimidine-2,4-dione]	7.01 nM		13.6 nM		
COc1cc(-c2cc3[nH]c(=O)n(-c4cncc5scc(C)c45)c(=O)c3s2)c(Cl)cc1F (single isomer, unassigned) [Example 1057, 6-(2-chloro-4-fluoro-5-methoxyphenyl)-3-(3-methylthieno[2,3-c]pyridin-4-yl)thieno[3,2-d]pyrimidine-2,4(1H,3H)-dione]	145 nM				52.6 nM
Cc1c(F)cncc1-n1c(=O)c2sc(-c3ccccc3Cl)cc2n(CCC#N)c1=O [Example 1023]	19.3 nM		59.3 nM		
COc1cncc(-n2c(=O)[nH]c3cc(-c4ccccc4Cl)ccc3c2=O)c1C [Example 141]		32200 nM		6650 nM	
COc1ccc(Cl)c(-c2cc3[nH]c(=O)n(-c4cncc(C5CC5)c4)c(=O)c3s2)c1 [Example 367]			21.1 nM	8.9 nM	
COc1cc(-c2cc3c(s2)c(=O)n(-c2cncc4cnn(C)c24)c(=O)n3C2CC2C#N)c(Cl)cc1F (stereo not shown) [Example 1005, 2-(6-(2-chloro-4-fluoro-5-methoxyphenyl)-3-(1-methyl-1H-pyrazolo[4,3-c]pyridin-7-yl)-2,4-dioxo-3,4-dihydrothieno[3,2-d]pyrimidin-1(2H)-yl)cyclopropane-1-carbonitrile]	38.5 nM				52.9 nM
CC(C)Oc1ccc(Cl)c(-c2ccc3c(=O)n(-c4cncc5ccccc45)c(=O)[nH]c3c2)c1 [Example 297]		223 nM		680 nM	
